Experimental data: ChEMBL document CHEMBL1201862, “PubChem BioAssay data set” (2004)
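96-well plates; 48 h exposure; 5 concentrations. Endpoints by linear interpolation between flanking doses. Not reached: highest tested concentration assigned. GI50 = concentration required for 50% inhibition of growth.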 Calls of active or inactive are those of the source. Rule as the data show it: active = GI50 up to about 1.1 µM and inactive = higher.

Tests used:
Test in all cases: NCI-60 cell line screen, 48 h
[1] = tested on: IGROV-1
[2] = tested on: OVCAR-4
[3] = tested on: SW-620
[4] = tested on: OVCAR-8
[5] = tested on: SN12C
[6] = tested on: UACC-62
[7] = tested on: HCT-15
[8] = tested on: HT-29
[9] = tested on: SK-MEL-2
[10] = tested on: SNB-19
[11] = tested on: RPMI-8226
[12] = tested on: KM12
[13] = tested on: SF-295
[14] = tested on: NCI-H226
[15] = tested on: TK-10
[16] = tested on: UACC-257
[17] = tested on: SK-OV-3
[18] = tested on: CAKI-1
[19] = tested on: OVCAR-5

Row | SMILES | GI50 [1] | GI50 [2] | GI50 [3] | GI50 [4] | GI50 [5] | GI50 [6] | GI50 [7] | GI50 [8] | GI50 [9] | GI50 [10] | GI50 [11] | GI50 [12] | GI50 [13] | GI50 [14] | GI50 [15] | GI50 [16] | GI50 [17] | GI50 [18] | GI50 [19]
1 | CCC12CCC(O)C1N(C)CCC2Sc1ccccc1 (stereo not given) | > 100 µM (inactive) | > 100 µM (inactive) | > 100 µM (inactive) | > 100 µM (inactive) | > 100 µM (inactive) | > 100 µM (inactive) | > 100 µM | 34.8 µM (inactive) | > 100 µM (inactive) | > 100 µM (inactive) | 59.3 µM (inactive) | 52.8 µM (inactive) | 76.2 µM (inactive) | 23.4 µM (inactive) | > 100 µM (inactive) | 61.2 µM (inactive) | > 100 µM (inactive) | – | –
2 | COc1ccc2c(c1)CCc1c(CO)c(COC(=O)NC(C)C)n(C)c1-2 | 5.68 µM (inactive) | 4.34 µM (inactive) | 3.74 µM (inactive) | 3.33 µM (inactive) | 8.93 µM (inactive) | 5.6 µM (inactive) | 13 µM | 3.14 µM (inactive) | 11.2 µM (inactive) | 6.87 µM (inactive) | 2.24 µM (inactive) | 6.61 µM (inactive) | 9.35 µM (inactive) | 2.68 µM (inactive) | 14.6 µM (inactive) | 4.42 µM (inactive) | 18.3 µM (inactive) | 5.81 µM (inactive) | 24.2 µM (inactive)
3 | COC(=O)c1cc(CC(C)C)c2c(c1)[nH]c1ccccc12 | > 100 µM (inactive) | > 100 µM (inactive) | 47.2 µM (inactive) | > 100 µM (inactive) | > 100 µM (inactive) | 96.8 µM (inactive) | 52.1 µM | > 100 µM (inactive) | > 100 µM (inactive) | > 100 µM (inactive) | – | 91.2 µM (inactive) | > 100 µM (inactive) | 28.7 µM (inactive) | > 100 µM (inactive) | > 10 µM (inactive) | > 100 µM (inactive) | > 100 µM (inactive) | > 100 µM (inactive)
4 | O=C(NCCN(CCNC(=O)c1cccc(=O)n1O)CCN(CCNC(=O)c1cccc(=O)n1O)CCNC(=O)c1cccc(=O)n1O)c1cccc(=O)n1O | > 100 µM (inactive) | > 100 µM (inactive) | > 100 µM (inactive) | > 100 µM (inactive) | > 100 µM (inactive) | > 100 µM (inactive) | > 100 µM | 89.9 µM (inactive) | > 100 µM (inactive) | > 100 µM (inactive) | > 100 µM (inactive) | > 100 µM (inactive) | > 100 µM (inactive) | > 100 µM (inactive) | > 100 µM (inactive) | > 100 µM (inactive) | > 100 µM (inactive) | > 100 µM (inactive) | > 100 µM (inactive)
5 | CCCCc1nccc2c(C)c3[nH]c4ccccc4c3cc12 | 3.33 µM (inactive) | 3.91 µM (inactive) | 2.26 µM (inactive) | 2.84 µM (inactive) | 6.98 µM (inactive) | 2.8 µM (inactive) | 2.07 µM | 2.62 µM (inactive) | 3.88 µM (inactive) | 5 µM (inactive) | 2 µM (inactive) | 3.09 µM (inactive) | 2.68 µM (inactive) | 7.57 µM (inactive) | – | 2.42 µM (inactive) | 5.81 µM (inactive) | 2.59 µM (inactive) | 6.44 µM (inactive)
6 | N#C/C(=C/C=C/c1ccco1)C(N)=O | > 10 µM (inactive) | – | > 10 µM (inactive) | > 10 µM (inactive) | > 10 µM (inactive) | – | > 10 µM | > 10 µM (inactive) | > 10 µM (inactive) | – | – | > 10 µM (inactive) | > 10 µM (inactive) | > 10 µM (inactive) | > 10 µM (inactive) | – | > 10 µM (inactive) | > 10 µM (inactive) | > 10 µM (inactive)
